Test results published in patent US20210228523A1, “MODULATORS OF SESTRIN-GATOR2 INTERACTION AND USES THEREOF” (Navitor Pharmaceuticals, Inc., priority 2017, published 2021).

Experiments:
[1] = molecular target: T1, GATOR2/Sestrin2 complexes (Homo sapiens, UniProt P58004); assay: In vitro PPI assay (Method 1; Western blot assay): Sestrin2 bound to GATOR2 after compound addition to immunoprecipitated FLAG-WDR24 complex; type: binding; details: 25 μM, % activity relative to leucine (25 μM = 100%)
T1 construct: endogenous in cells; host or cells: HEK293T cells stably expressing FLAG-WDR24 (lentiviral, pLJM60)
T1 sequence (P58004 1-480): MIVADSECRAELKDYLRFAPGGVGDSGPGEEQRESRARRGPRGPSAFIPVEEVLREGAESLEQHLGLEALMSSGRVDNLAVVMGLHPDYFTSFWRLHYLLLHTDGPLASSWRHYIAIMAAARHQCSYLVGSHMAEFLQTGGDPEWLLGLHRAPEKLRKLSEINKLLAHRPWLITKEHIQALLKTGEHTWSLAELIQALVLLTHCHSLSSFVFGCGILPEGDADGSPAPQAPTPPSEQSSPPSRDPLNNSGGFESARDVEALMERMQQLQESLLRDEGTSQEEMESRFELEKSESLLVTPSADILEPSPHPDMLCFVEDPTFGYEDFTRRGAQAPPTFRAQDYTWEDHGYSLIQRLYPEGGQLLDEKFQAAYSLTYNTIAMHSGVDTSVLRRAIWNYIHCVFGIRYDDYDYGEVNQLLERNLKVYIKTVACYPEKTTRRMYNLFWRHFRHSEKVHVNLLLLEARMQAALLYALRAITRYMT
Description: This screening assay measured test compound activity in vitro on GATOR2/Sestrin2 complexes purified via immunoprecipitation of stably expressed FLAG-WDR24 from HEK293T cells. HEK293T cells (293 Ts) were engineered to stably express N-terminally tagged FLAG-WDR24 via transduction by lentivirus. Lentiviruses were produced by co-transfection of the lentiviral transfer vector pLJM60 with the […] into HEK-293T cells using the XTremeGene 9 transfection reagent (Roche Diagnostics). The media was changed 24 hours post-transfection to Dulbecco's Modified Eagle's media (DMEM) supplemented with 30% Inactivated Fetal Serum. The virus-containing supernatants were collected 48 and 72 hours after transfection and passed through a 0.45 μm filter to eliminate cells. Target cells in 6-well tissue culture plates were infected in media containing 8 μg/mL polybrene and spin infections were performed by centrifugation at 2,200 rpm for 1 hour. Twenty-four hours after infection, the virus was removed and the cells selected with the appropriate antibiotic. Cells were then grown in DMEM supplemented with 10% fetal bovine serum and antibiotics.
Seventy-two hours later, cells were placed in standard RPMI media formulated with no amino acids and supplemented with 5 mM Glucose (−AA RPMI, US Biological Life Sciences) for 1 hour then subsequently lysed in lysis buffer (40 mM HEPES, 1% Triton, 10 mM sodium β-glycerophosphate, 10 mM sodium pyrophosphate, 2.5 mM MgCl2 and protease inhibitors). To isolate the FLAG-WDR24/endogenous-Sestrin2 complex, crude lysate (equivalent to 2-4 mg of total protein) in a volume of 1 ml was subjected to immunoprecipitation with 30 μl of anti-flag resin (SIGMA) for 2 hours at 4° C., washed twice in cold lysis buffer plus 0.5M NaCl and resuspended in 1 ml of cold cytosolic buffer (40 mM HEPES pH 7.4, 140 mM KCl, 10 mM NaCl, 2.5 mM MgCl2, 0.1% TritonX-100). […] After the incubation period, samples were centrifuged to pellet the FLAG-WDR24/endogenous-Sestrin2 complex bound to the anti-flag resin, the supernatant was completely removed and resin was resuspended in SDS-PAGE sample buffer and boiled for 5 minutes. Samples were then processed by SDS-PAGE and western blots were performed with anti-FLAG (SIGMA) and anti-Sestrin2 (Cell Signaling Technology) antibodies as described in L. Chantranupong, et al., Cell Reports 9:1-8 (2014).
The resulting western blots were scanned and band intensities corresponding to Sestrin2 and FLAG-WDR24 were quantified using the LI-COR® imaging platform. To determine the amount of Sestrin2 bound to GATOR2 for each condition, the band intensity for Sestrin2 was normalized to the band intensity of FLAG-WDR24. […]
72 hours later, cells were placed in standard RPMI media formulated with no amino acids and supplemented with 5 mM Glucose (−AA RPMI, USBiological Life Sciences) for 1 hour then subsequently lysed in lysis buffer (40 mM HEPES, 1% Triton, 10 mM Sodium Beta-Glycerophosphate, 10 mM Sodium Pyrophosphate, 2.5 mM MgCl2 and protease inhibitors). The Flag-WDR24/endogenous-Sestrin2 complex was isolated as follows: crude lysate (equivalent to 2-4 mg of total protein) in a volume of 1 ml was subjected to immunoprecipitation (IP) with 30 μl of anti-flag resin (SIGMA) for 2 hours at 4° C., washed twice in cold lysis buffer plus 0.5M NaCl and resuspended in 1 ml of cold cytosolic buffer (40 mM HEPES pH 7.4, 140 mM KCl, 10 mM NaCl, 2.5 mM MgCl2, 0.1% TritonX-100). Compounds were then added to each sample at a given concentration of 25 μM and incubated with rotation at 4° C. for 30 minutes. After the incubation period, samples were centrifuged to pellet the Flag-WDR24/endogenous-Sestrin2 complex bound to the anti-flag resin, the supernatant was completely removed and resin was resuspended in sodium dodecyl sulfate-polyacrylamide gel electrophoresis (SDS-PAGE) sample buffer and boiled for 5 minutes. […]

mTORC1 signaling = assay: Cell-based mTORC1 activation (Method 2): western blot of phosphorylated S6 Kinase/4EBP1 in leucine-starved HEK293T cells; details: concentration 100 μM, shift relative to DMSO control
Method: Briefly, 800,000 HEK293T cells were plated in each well of a 6-well plate in DMEM supplemented with 10% fetal bovine serum and antibiotics. […] Cells were then lysed, processed for SDS-PAGE and western blotting was performed with antibodies directed against the mTORC1 substrates phosphorylated S6 Kinase (Thr389) and phosphorylated 4EBP1 (Thr37/46) (Cell Signaling Technology) and loading controls (beta-actin, Santa Cruz Biotechnology) as described in Kang, S. A., et al. Science 341(6144): 364-374 (2013). The intensity of the bands corresponding to the phosphorylated substrates were then normalized to the actin band using the LI-COR® imaging platform.

mTORC1 = assay: Western blot of pS6 in rat brain and selected peripheral organs; type: in vivo; details: Example D; Leu 500 mg/kg oral; 1 hr post-dose
Method: Study Design: Thirty (30) male rats weighing between 175 and 200 g were randomized into 3 study groups (n=10), following a 5-day acclimation period. One hour following dosing rats were sacrificed by conscious decapitation, plasma, brain and selected peripheral tissues were harvested for compound level and WB analysis. Tissues were prepared for WB to quantitate the mTORC1 substrate pS6 as a measure of mTORC1 activity.
The dosing volume based on the weight of the animal (10 mL/kg) was administered by oral gavage. Test articles were prepared the day of dosing.
Tissues Preparations: One hour following dosing rats were sacrificed by conscious decapitation, plasma, brain and peripheral tissues were harvested and immediately frozen in liquid nitrogen. Tissues were thawed and homogenized for 1 min twice using MP homogenizer in Lysis Buffer (Cell lysis buffer: 1% Triton X-100, 50 mM HEPES pH 7.4, 100 mM NaCl, 2 mM EDTA, 10 mM Beta-glycerophosphate, 10 mM Sodium pyrophosphate, and 1 protease inhibitor tab per 50 mL fresh) at 4° C. Lysates were then sonicated on ice for 20 s at 50% amplitude. The protein concentration was determined by Bradford assay and all samples were mixed with loading buffer (50 mM Tris-HCl pH 6.8, 2% SDS, 5% glycerol, 5% β-mercaptoethanol and 0.01% Bromophenol blue) and stored at −20° C. until WB analysis.
Western Blot (WB) Analysis. Equal amounts of each sample (15 μg of total protein) were loaded and separated on NuPAGE 4-12% Bis-Tris gels and transferred to PVDF membrane (Immobilon-FL PVDF membrane, Millipore) using CAPS Buffer (10 mM 3-(Cyclohexylamino)-1-propanesulfonic acid, 12.5% Ethanol pH=10). After transfer, membranes were incubated for 1 hr at room temperature in Odyssey blocking buffer (Licor). After blocking, membranes were incubated at 4° C. overnight with primary antibodies. Primary antibodies used were rabbit anti-[…] (cell signaling; #5364) at 1:1000, mouse anti-GAPDH (Sigma; #G8795) at 1:1000 and mouse anti-a-tubulin (Sigma; #T5168) at 1:10000 in Odyssey blocking buffer. The next day, membranes were washed three times in 1×TBS-Tween (25 mM Tris, pH 7.4, 3.0 mM KCl, 140 mM NaCl and 0.05% Tween-20) and incubated with dye-coupled secondary antibodies (goat anti-mouse IRdye680, and goat anti-rabbit IRdye800 from LI-COR) at 1:20000 in Odyssey blocking buffer for 30 min then wash three times in IX TBS-Tween. Signals were quantified using the Odyssey Infrared Imaging System (LI-COR Bioscience). The resulting densitometric readings were used to generate a ratio of phopho-protein to a-tubulin or GAPDH. The resulting ratio was further normalized to vehicle treated control group.

[2] = tested on: point mutant form of Sestrin2 unable to bind leucine; assay: ILBA with Flag-tagged point mutant Sestrin2; type: binding, human
Method: In one version, the assay was performed with crude lysate generated from a human cell line after a 1-hour period of amino acid starvation (cells are lysed in 1% Triton, 10 mM beta-glycerol phosphate, 10 mM sodium pyrophosphate, 40 mM HEPES [pH 7.4], 150 mM NaCl and 2.5 mM MgCl2). […] After compound incubation, samples were subjected to immunoprecipitation with the CST anti-Sestrin2 antibody for 1.5 hours followed by a 30-minute incubation with protein-A sepharose as described in L. Chantranupong, et al., Cell Reports 9:1-8 (2014). The sepharose conjugated antibody-protein complex was precipitated via centrifugation and the flow-through was subjected to a second round of immunoprecipitation with a rabbit polyclonal anti-Sestrin2 antibody (Protein Tech, #10795-1-AP) to determine that total Sestrin2 protein levels between samples were equal. SDS-PAGE was performed with the immunoprecipitation samples followed by western-blot with the mouse monoclonal anti-Sestrin2 antibody from SIGMA (cat #WH0083667M3).
This assay was also performed in cultured human cells over-expressing Sestrin2 N-terminally fused to a Flag tag. In this version of the assay, the procedure remained the same, but immunoblotting was performed with a mouse anti-Flag antibody (#F3165, SIGMA).

| Compound | Activity of Leucine: % Activity [1] | further results |
| --- | --- | --- |
| C[C@H](CC(N)C(=O)O)C(F)(F)F (stereo in doubt) [Compound I-167, (2R,4R)-2-amino-5,5,5-trifluoro-4-methylpentanoic Acid] | A (a % activity relative to leucine of ≥40%) | Cell-Based mTORC1 Activation (mTORC1 signaling): D to F |
| CC(C)C[C@H](N)C(N)=O.Cl [Compound I-23] | C (a % activity relative to leucine of between -40 and 40%) | Cell-Based mTORC1 Activation (mTORC1 signaling): D to F |
| N[C@@H](CC1CCC1)C(=O)O [Compound I-37] | A (a % activity relative to leucine of ≥40%) | Cell-Based mTORC1 Activation (mTORC1 signaling): E to F |
| NC(CCCC(F)(F)F)C(=O)O (centres unmarked) [Compound I-42] | A (a % activity relative to leucine of ≥40%) | Cell-Based mTORC1 Activation (mTORC1 signaling): D to F |
| CC(C)(C)C[C@H](N)C(=O)O [Compound I-43] | A (a % activity relative to leucine of ≥40%) | Cell-Based mTORC1 Activation (mTORC1 signaling): D to E |
| CC(C)C[C@H](N)C(=O)N1CCCC1 [Compound I-154] | C (a % activity relative to leucine of between -40 and 40%) |  |
| CC(C)C[C@H](N)C(=O)N(CC(C)C)CC(C)C [Compound I-155] | C (a % activity relative to leucine of between -40 and 40%) |  |
| CC(C)C[C@@H](N)S(=O)(=O)O [Compound I-156] | C (a % activity relative to leucine of between -40 and 40%) |  |
| CC(C)C[C@H](N)S(=O)(=O)O [Compound I-157] | B to C |  |
| CN(C)[C@@H](CC(C)(C)C)C(N)=O [Compound I-158] | C (a % activity relative to leucine of between -40 and 40%) |  |
| CN(C)[C@@H](CC(C)(C)C)C(=O)O [Compound I-159] | A (a % activity relative to leucine of ≥40%) |  |
| CC(C)CNC(=O)[C@@H](N)CC(C)C [Compound I-160] | C (a % activity relative to leucine of between -40 and 40%) |  |
| CC(C)C[C@H](N)C(=O)N1CCCC[C@H]1C [Compound I-161] | C (a % activity relative to leucine of between -40 and 40%) |  |
| CC(C)C[C@H](N)C(=O)N(C)C1CCCC1 [Compound I-162] | C (a % activity relative to leucine of between -40 and 40%) |  |
| N[C@H](CC(C(F)(F)F)C(F)(F)F)C(=O)O [Compound I-163] | A (a % activity relative to leucine of ≥40%) |  |
| N[C@@H](CC(C(F)(F)F)C(F)(F)F)C(=O)O [Compound I-164, (S)-2-Amino-5,5,5-trifluoro-4-(trifluoromethyl)pentanoic Acid] | A (a % activity relative to leucine of ≥40%) |  |
| CC(C)C[C@H](N)C(=O)NC(C)(C)C [Compound I-165] | A to C |  |
| CC(C)C[C@H](N)C(=O)NC(C)C [Compound I-166] | C (a % activity relative to leucine of between -40 and 40%) |  |
| COC(=O)[C@@H](N)CC(C)C [Compound I-168] |  | Cell-Based mTORC1 Activation (mTORC1 signaling): D to E |
| CC(C)C[C@H](N)C(=O)O [Leu, Leucine, reference compound] |  | pS6 levels in rat brain (mTORC1): no activation was observed |
| CC(C)(C)C[C@H](N)C(=O)O [γ-methylleucine] |  | decrease in affinity of the CST antibody upon ligand binding [2]: not observed |
